For 24 compounds, IC50 results are on record in patent US20110212968A1, “PHENETHYLAMIDE DERIVATIVES AND THEIR HETEROCYCLIC ANALOGUES” (priority 2008, published 2011).

For one test, the target named is T1, human orexin-1 receptor (Homo sapiens, UniProt O43613).
T1 construct: expressed in transfected cells; host or cells: CHO (Chinese hamster ovary) cells, kept under G418 selection
T1 sequence (O43613 1-425): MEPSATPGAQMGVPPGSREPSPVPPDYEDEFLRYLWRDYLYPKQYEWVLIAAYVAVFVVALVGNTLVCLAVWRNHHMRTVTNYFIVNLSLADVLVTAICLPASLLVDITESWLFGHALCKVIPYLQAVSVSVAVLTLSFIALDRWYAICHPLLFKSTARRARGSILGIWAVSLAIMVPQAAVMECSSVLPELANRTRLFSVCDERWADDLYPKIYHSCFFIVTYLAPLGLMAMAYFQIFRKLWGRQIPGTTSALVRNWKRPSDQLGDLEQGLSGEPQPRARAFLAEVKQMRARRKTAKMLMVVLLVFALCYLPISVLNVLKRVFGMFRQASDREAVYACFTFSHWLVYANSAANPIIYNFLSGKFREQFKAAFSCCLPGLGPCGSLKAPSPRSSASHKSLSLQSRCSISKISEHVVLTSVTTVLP
Kind of test: Intracellular calcium measurement (FLIPR Tetra), orexin receptor antagonistic activity, OX1. Format: cell-based. Particulars: CHO cells expressing human orexin-1 receptor, 3 nM orexin-A, conditions B. The procedure, abridged:
(§1)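 Recombinant CHO cells expressing human OX1 or OX2, loaded with fluo-4 AM plus probenecid, were preincubated with antagonist 10 min, then stimulated with 3 nM human orexin-A. Peak fluorescence was compared with vehicle; IC50 derived, sometimes normalized to an on-plate reference compound; two pipetting/cell-splitting conditions were used.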
For orientation: Calcium flux is commonly read through the fluorescence of an indicator in the cells.

The next test concerns the target T2, human orexin-2 receptor (Homo sapiens, UniProt O43614).
T2 construct: expressed in transfected cells; host or cells: CHO (Chinese hamster ovary) cells, kept under G418 selection
T2 sequence (O43614 1-444): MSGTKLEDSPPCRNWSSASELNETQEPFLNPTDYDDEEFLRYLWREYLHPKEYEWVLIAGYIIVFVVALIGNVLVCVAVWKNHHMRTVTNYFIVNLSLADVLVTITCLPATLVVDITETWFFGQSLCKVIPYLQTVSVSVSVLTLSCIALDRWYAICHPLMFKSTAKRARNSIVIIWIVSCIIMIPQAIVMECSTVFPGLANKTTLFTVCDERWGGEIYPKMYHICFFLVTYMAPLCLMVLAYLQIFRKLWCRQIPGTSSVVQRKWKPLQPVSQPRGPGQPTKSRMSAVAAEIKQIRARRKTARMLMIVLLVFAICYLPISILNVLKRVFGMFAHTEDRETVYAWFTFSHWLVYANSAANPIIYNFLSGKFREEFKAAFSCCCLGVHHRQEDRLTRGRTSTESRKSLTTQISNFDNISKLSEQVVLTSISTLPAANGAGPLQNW
Kind of test: Intracellular calcium measurement (FLIPR Tetra), orexin receptor antagonistic activity, OX2. In kind it is cell-based. The conditions noted are these: CHO cells expressing human orexin-2 receptor, 3 nM orexin-A, conditions B. The procedure, abridged:
as §1

Where [1] appears, read: normalized (*) using IC50 of on-plate reference compound.

The structures appear in SMILES notation. pIC50: −log10 of the molar value.

As for `Cc1cccc(-c2sc(N)nc2C(=O)N(CCc2c[nH]c3ccc(Br)cc23)CC2CC2)c1` [Example 223, 2-Amino-5-m-tolyl-thiazole-4-carboxylic acid [2-(5-bromo-1H-indol-3-yl)-ethyl]-cyclopropylmethyl-amide], the pIC50 (in general, the IC50 on a negative log10 scale, so that one unit is a factor of ten) on human orexin-1 receptor was 8.30; at human orexin-2 receptor, 6.87.
For `Cc1cccc(-c2sc(N)nc2C(=O)N(CCc2c[nH]c3cc(Cl)ccc23)CC2CC2)c1` [Example 224, 2-Amino-5-m-tolyl-thiazole-4-carboxylic acid [2-(6-chloro-1H-indol-3-yl)-ethyl]-cyclopropylmethyl-amide], the pIC50 is 8.10 on human orexin-1 receptor and 7.59 at human orexin-2 receptor.
For `COc1ccc2c(CCN(CC3CC3)C(=O)c3nc(N)sc3-c3cccc(C)c3)c[nH]c2c1` [Example 227, 2-Amino-5-m-tolyl-thiazole-4-carboxylic acid cyclopropylmethyl-[2-(6-methoxy-1H-indol-3-yl)-ethyl]-amide], the pIC50 at human orexin-1 receptor is 8.15; on human orexin-2 receptor, 7.77.
Consider `Cc1cccc(-c2sc(N)nc2C(=O)N(CCc2c[nH]c3c(C)cccc23)CC2CC2)c1` [Example 230, 2-Amino-5-m-tolyl-thiazole-4-carboxylic acid cyclopropylmethyl-[2-(7-methyl-1H-indol-3-yl)-ethyl]-amide], for which the pIC50 at human orexin-1 receptor is 8.05; on human orexin-2 receptor it was 7.74.
As to `Cc1cccc(-c2sc(N)nc2C(=O)N(CCc2c[nH]c3cccc(F)c23)CC2CC2)c1` [Example 231, 2-Amino-5-m-tolyl-thiazole-4-carboxylic acid cyclopropylmethyl-[2-(4-fluoro-1H-indol-3-yl)-ethyl]-amide], the pIC50 is 8.05 at human orexin-1 receptor and 7.57 on human orexin-2 receptor.
Regarding `Cc1cccc(-c2sc(N)nc2C(=O)N(CCc2c[nH]c3ccc(F)cc23)CC2CC2)c1` [Example 232, 2-Amino-5-m-tolyl-thiazole-4-carboxylic acid cyclopropylmethyl-[2-(5-fluoro-1H-indol-3-yl)-ethyl]-amide], the pIC50 is 8.15 at human orexin-1 receptor and 7.80 at human orexin-2 receptor.
Turning to `Cc1cccc(-c2sc(N)nc2C(=O)N(CCc2c[nH]c3cc(F)ccc23)CC2CC2)c1` [Example 233, 2-Amino-5-m-tolyl-thiazole-4-carboxylic acid cyclopropylmethyl-[2-(6-fluoro-1H-indol-3-yl)-ethyl]-amide], the pIC50 was 7.43 at human orexin-1 receptor (setting [1]) and 7.66 at human orexin-2 receptor (setting [1]).
Take `Cc1cccc(-c2sc(N)nc2C(=O)N(CCc2c[nH]c3c(F)cccc23)CC2CC2)c1` [Example 234, 2-Amino-5-m-tolyl-thiazole-4-carboxylic acid cyclopropylmethyl-[2-(7-fluoro-1H-indol-3-yl)-ethyl]-amide]: the pIC50 at human orexin-1 receptor was 8.30; at human orexin-2 receptor, 7.80.
`COc1ccc(CCN(CC2CC2)C(=O)c2nc(C)sc2-c2ccc(C)c(C)c2)cn1` [Example 254, 5-(3,4-Dimethyl-phenyl)-2-methyl-thiazole-4-carboxylic acid cyclopropylmethyl-[2-(6-methoxy-pyridin-3-yl)-ethyl]-amide]: the pIC50 is 5.75 on human orexin-1 receptor and 6.63 at human orexin-2 receptor.
Regarding `CN(C)c1cccc(-c2ocnc2C(=O)N(CCc2c[nH]c3ccc(F)cc23)CC2CC2)c1` [Example 261, 5-(3-Dimethylamino-phenyl)-oxazole-4-carboxylic acid cyclopropylmethyl-[2-(5-fluoro-1H-indol-3-yl)-ethyl]-amide], the values for the pIC50 on human orexin-1 receptor (setting [1]) and at human orexin-2 receptor (setting [1]) were 6.24 and 6.73, respectively.
Regarding `Cc1nc(-c2ccc(Cl)cc2)c(C(=O)N(CCc2c[nH]c3ccc(F)cc23)CC2CC2)s1` [Example 262, 4-(4-Chloro-phenyl)-2-methyl-thiazole-5-carboxylic acid cyclopropylmethyl-[2-(5-fluoro-1H-indol-3-yl)-ethyl]-amide], the pIC50 is 5.04 at human orexin-1 receptor (setting [1]) and 6.33 at human orexin-2 receptor (setting [1]).
In the case of `Cc1nc(C(=O)N(CCc2c[nH]c3ccc(F)cc23)CC2CC2)c(-c2ccc(C)c(F)c2F)s1` [Example 273, 5-(2,3-Difluoro-4-methyl-phenyl)-2-methyl-thiazole-4-carboxylic acid cyclopropylmethyl-[2-(5-fluoro-1H-indol-3-yl)-ethyl]-amide], the pIC50 on human orexin-1 receptor (setting [1]) was 6.39; at human orexin-2 receptor (setting [1]), 7.19.
For `Cc1ccc(-c2scnc2C(=O)N(CCc2c[nH]c3ccc(F)cc23)CC2CC2)cc1C` [Example 274, 5-(3,4-Dimethyl-phenyl)-thiazole-4-carboxylic acid cyclopropylmethyl-[2-(5-fluoro-1H-indol-3-yl)-ethyl]-amide], the pIC50 on human orexin-1 receptor (setting [1]) was 6.81; at human orexin-2 receptor (setting [1]), 7.18.
In the case of `COc1nc(C(=O)N(CCc2c[nH]c3ccc(F)cc23)CC2CC2)c(-c2cccc(C)c2)s1` [Example 275, 2-Methoxy-5-m-tolyl-thiazole-4-carboxylic acid cyclopropylmethyl-[2-(5-fluoro-1H-indol-3-yl)-ethyl]-amide], the negative-log IC50 (pIC50) at human orexin-1 receptor (setting [1]) is 6.70; on human orexin-2 receptor (setting [1]) it was 7.15.
The like results for `Cc1ccc(-c2sc(C3CC3)nc2C(=O)N(CCc2c[nH]c3ccc(F)cc23)CC2CC2)cc1F` [Example 276, 2-Cyclopropyl-5-(3-fluoro-4-methyl-phenyl)-thiazole-4-carboxylic acid cyclopropylmethyl-[2-(5-fluoro-1H-indol-3-yl)-ethyl]-amide] were, in that order, 5.65 and 6.22.
In the case of `Cc1cccc(-c2sc(CN(C)C)nc2C(=O)N(CCc2c[nH]c3ccc(F)cc23)CC2CC2)c1` [Example 279, 2-Dimethylaminomethyl-5-m-tolyl-thiazole-4-carboxylic acid cyclopropylmethyl-[2-(5-fluoro-1H-indol-3-yl)-ethyl]-amide], the pIC50 on human orexin-1 receptor (setting [1]) was 5.25; at human orexin-2 receptor (setting [1]), 6.55.
In the case of `CCCN(CCc1c[nH]c2ccc(F)cc12)C(=O)c1nccnc1-c1ccccc1` [Example 283, 3-Phenyl-pyrazine-2-carboxylic acid [2-(5-fluoro-1H-indol-3-yl)-ethyl]-propyl-amide], the negative-log IC50 (pIC50) on human orexin-1 receptor (setting [1]) is 6.72; on human orexin-2 receptor (setting [1]) it was 7.80.
Turning to `COC(=O)CN(CCc1c[nH]c2ccc(F)cc12)C(=O)c1nccnc1-c1ccccc1` [Example 286, [[2-(5-Fluoro-1H-indol-3-yl)-ethyl]-(3-phenyl-pyrazine-2-carbonyl)-amino]-acetic acid methyl ester], the negative logarithm of the IC50 (pIC50) was 5.56 on human orexin-1 receptor (setting [1]) and 6.49 at human orexin-2 receptor (setting [1]).
Take `CC(C)N(CCc1c[nH]c2ccc(F)cc12)C(=O)c1nccnc1-c1ccccc1` [Example 287, 3-Phenyl-pyrazine-2-carboxylic acid [2-(5-fluoro-1H-indol-3-yl)-ethyl]-isopropyl-amide]: the negative-log IC50 (pIC50) on human orexin-1 receptor (setting [1]) is 5.61; on human orexin-2 receptor (setting [1]), 6.23.
For `O=C(c1nccnc1-c1ccccc1)N(CCO)CCc1c[nH]c2ccc(F)cc12` [Example 289, 3-Phenyl-pyrazine-2-carboxylic acid [2-(5-fluoro-1H-indol-3-yl)-ethyl]-(2-hydroxy-ethyl)-amide] the same measures were < 5.37 and 6.20.
The like results for `CCCN(CCc1c[nH]c2ccc(F)cc12)C(=O)c1nccnc1-c1ccc(C)c(C)c1` [Example 292, 3-(3,4-Dimethyl-phenyl)-pyrazine-2-carboxylic acid [2-(5-fluoro-1H-indol-3-yl)-ethyl]-propyl-amide] were, in that order, 6.79 and 8.00.
In the case of `Cc1ccc(-c2nccnc2C(=O)N(CCc2c[nH]c3ccc(F)cc23)CC(N)=O)cc1C` [Example 294, 3-(3,4-Dimethyl-phenyl)-pyrazine-2-carboxylic acid carbamoylmethyl-[2-(5-fluoro-1H-indol-3-yl)-ethyl]-amide], the pIC50 is 5.42 at human orexin-1 receptor (setting [1]) and 6.15 on human orexin-2 receptor (setting [1]).
Consider `Cc1ccc(-c2nccnc2C(=O)N(CCc2c[nH]c3ccc(F)cc23)CC(F)F)cc1C` [Example 297, 3-(3,4-Dimethyl-phenyl)-pyrazine-2-carboxylic acid (2,2-difluoro-ethyl)-[2-(5-fluoro-1H-indol-3-yl)-ethyl]-amide], for which the pIC50 at human orexin-1 receptor (setting [1]) is 6.15; on human orexin-2 receptor (setting [1]), 6.87.
For `COc1ccc(-c2sc(C)nc2C(=O)N(CCc2c[nH]c3ccc(F)cc23)CC(=O)N(C)C)cn1` [Example 303, 5-(6-Methoxy-pyridin-3-yl)-2-methyl-thiazole-4-carboxylic acid dimethylcarbamoylmethyl-[2-(5-fluoro-1H-indol-3-yl)-ethyl]-amide] the same measures were 5.63 and 6.26.
